Test results published in patent publication US9637483B2, “Heterocyclic compound” (TAKEDA PHARMACEUTICAL COMPANY LIMITED, priority 2013, dated 2017).

Tests used:
Assay type in all cases: biochemical
[1] = biological target: T1, JAK2 (Homo sapiens, UniProt O60674); experiment: JAK2 enzyme inhibition test (LANCE method); settings: 1 μM test compound; read-out: JAK2 enzyme inhibitory activity (%, 1 μM)
T1 construct: purchased Invitrogen
Description: (§1) JAK2 enzyme inhibitory activity of test compounds was measured by the LANCE method (PerkinElmer). First, a test compound diluted with assay buffer (50 mM HEPES (pH 7.5), 10 mM MgCl2, 1 mM EGTA, 2 mM DTT, 0.01% Tween20, 0.01% BSA) was added to a 384-well plate by 2 μL each. Then, a JAK2 (Invitrogen) solution and a fluorescence-labeled peptide substrate (ULight-JAK1, PerkinElmer) solution diluted with assay buffer to 6 ng/mL and 300 nM, respectively, were added by 2 μL each. Then, an enzyme reaction was started by adding 2 μL each of ATP solution prepared with assay buffer to 45 μM. After the reaction at room temperature for 1 hr, Detection Buffer (PerkinElmer) prepared to contain 20 mM EDTA, 4 nM europium-labeled anti-phosphotyrosine antibody (PerkinElmer) was added by 6 μL each. After standing at room temperature for 1 hr, fluorescence intensity (excitation wavelength 340 nm, fluorescence wavelength 665 nm, delay time 100 microseconds) was measured by a plate reader, Envision (PerkinElmer). The inhibitory activity of each compound was calculated as a relative activity value to the fluorescence intensity of a well free of enzyme as 100% inhibition.

[2] = biological target: T2, JAK1 (Homo sapiens, UniProt P23458); experiment: JAK1 enzyme inhibition test (LANCE method); settings: 1 μM test compound; read-out: JAK1 enzyme inhibitory activity (%, 1 μM)
T2 construct: purchased Invitrogen
T2 sequence (P23458 whole entry): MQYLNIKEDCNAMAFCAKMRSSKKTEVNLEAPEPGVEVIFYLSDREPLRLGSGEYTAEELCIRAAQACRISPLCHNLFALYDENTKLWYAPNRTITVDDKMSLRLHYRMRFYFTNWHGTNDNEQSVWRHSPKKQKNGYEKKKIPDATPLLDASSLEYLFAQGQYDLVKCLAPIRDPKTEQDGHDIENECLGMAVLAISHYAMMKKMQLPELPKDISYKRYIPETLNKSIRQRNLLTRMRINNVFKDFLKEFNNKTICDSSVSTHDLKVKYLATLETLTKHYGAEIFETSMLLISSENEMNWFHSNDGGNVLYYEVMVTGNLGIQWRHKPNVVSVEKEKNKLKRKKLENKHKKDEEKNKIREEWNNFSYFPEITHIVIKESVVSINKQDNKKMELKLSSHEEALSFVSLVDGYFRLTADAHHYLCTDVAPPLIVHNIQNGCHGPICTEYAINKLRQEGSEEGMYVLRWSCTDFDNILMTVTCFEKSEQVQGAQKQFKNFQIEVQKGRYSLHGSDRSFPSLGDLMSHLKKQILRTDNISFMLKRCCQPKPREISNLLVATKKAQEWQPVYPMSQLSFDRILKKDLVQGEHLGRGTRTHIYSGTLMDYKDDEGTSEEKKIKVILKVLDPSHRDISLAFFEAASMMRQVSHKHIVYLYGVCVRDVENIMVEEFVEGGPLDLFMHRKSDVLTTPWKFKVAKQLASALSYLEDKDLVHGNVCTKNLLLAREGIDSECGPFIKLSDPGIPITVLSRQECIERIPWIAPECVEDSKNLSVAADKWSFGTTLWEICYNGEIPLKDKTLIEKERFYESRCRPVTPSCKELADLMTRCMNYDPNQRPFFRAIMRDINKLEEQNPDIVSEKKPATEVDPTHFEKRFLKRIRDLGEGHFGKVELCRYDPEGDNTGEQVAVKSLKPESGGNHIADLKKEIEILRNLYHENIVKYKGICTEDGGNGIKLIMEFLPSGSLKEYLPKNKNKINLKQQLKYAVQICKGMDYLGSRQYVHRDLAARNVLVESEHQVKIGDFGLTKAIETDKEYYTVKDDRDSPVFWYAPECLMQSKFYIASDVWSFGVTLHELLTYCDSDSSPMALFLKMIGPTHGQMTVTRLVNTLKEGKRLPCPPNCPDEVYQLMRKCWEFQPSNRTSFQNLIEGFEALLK
Description: as §1, with “JAK1 enzyme” for “JAK2 enzyme”, “a JAK1” for “a JAK2”, “to 187.5” for “to 6”, “to 150” for “to 45”

[3] = biological target: T3, TYK2 (Homo sapiens, UniProt P29597); experiment: TYK2 enzyme inhibition test (LANCE method); settings: 1 μM test compound; read-out: TYK2 enzyme inhibitory activity (%, 1 μM)
T3 construct: purchased Invitrogen
T3 sequence (P29597 whole entry): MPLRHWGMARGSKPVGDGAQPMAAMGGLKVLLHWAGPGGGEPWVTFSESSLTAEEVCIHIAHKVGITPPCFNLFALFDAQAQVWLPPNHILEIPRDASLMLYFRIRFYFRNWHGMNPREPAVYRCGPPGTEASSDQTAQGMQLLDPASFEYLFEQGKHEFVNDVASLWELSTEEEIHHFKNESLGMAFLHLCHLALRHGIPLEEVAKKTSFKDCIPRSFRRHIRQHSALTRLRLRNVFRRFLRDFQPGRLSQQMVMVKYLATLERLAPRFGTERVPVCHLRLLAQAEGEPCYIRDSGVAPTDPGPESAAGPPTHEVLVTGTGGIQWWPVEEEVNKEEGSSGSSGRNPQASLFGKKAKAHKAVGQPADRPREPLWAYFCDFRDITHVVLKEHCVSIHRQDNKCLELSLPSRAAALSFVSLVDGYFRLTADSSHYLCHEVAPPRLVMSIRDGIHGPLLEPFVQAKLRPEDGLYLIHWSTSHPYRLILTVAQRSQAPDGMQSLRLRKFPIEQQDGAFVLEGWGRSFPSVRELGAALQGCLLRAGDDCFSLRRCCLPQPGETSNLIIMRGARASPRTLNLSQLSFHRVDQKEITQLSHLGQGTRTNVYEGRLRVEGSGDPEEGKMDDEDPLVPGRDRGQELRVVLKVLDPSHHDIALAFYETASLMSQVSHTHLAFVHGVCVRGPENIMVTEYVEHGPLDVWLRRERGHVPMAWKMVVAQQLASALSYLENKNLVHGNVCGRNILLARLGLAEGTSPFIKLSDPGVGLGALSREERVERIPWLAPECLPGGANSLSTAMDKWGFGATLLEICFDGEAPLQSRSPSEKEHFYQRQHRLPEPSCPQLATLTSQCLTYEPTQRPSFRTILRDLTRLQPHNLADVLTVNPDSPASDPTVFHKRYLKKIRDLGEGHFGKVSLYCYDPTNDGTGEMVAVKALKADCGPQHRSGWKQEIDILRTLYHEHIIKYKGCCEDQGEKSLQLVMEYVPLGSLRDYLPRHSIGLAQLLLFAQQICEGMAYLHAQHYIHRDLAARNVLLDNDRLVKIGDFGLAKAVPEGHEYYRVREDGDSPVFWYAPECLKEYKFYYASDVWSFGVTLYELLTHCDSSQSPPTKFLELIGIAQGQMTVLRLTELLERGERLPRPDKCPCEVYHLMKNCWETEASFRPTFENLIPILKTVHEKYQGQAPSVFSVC
Description: as §1, with “TYK2 enzyme” for “JAK2 enzyme”, “a TYK2” for “a JAK2”, “to 375” for “to 6”, “to 30” for “to 45”

[4] = biological target: T4, JAK3 (Homo sapiens, UniProt P52333); experiment: JAK3 enzyme inhibition test (LANCE method); settings: 1 μM test compound; read-out: JAK3 enzyme inhibitory activity (%, 1 μM)
T4 construct: purchased Invitrogen
T4 sequence (P52333 1-1124): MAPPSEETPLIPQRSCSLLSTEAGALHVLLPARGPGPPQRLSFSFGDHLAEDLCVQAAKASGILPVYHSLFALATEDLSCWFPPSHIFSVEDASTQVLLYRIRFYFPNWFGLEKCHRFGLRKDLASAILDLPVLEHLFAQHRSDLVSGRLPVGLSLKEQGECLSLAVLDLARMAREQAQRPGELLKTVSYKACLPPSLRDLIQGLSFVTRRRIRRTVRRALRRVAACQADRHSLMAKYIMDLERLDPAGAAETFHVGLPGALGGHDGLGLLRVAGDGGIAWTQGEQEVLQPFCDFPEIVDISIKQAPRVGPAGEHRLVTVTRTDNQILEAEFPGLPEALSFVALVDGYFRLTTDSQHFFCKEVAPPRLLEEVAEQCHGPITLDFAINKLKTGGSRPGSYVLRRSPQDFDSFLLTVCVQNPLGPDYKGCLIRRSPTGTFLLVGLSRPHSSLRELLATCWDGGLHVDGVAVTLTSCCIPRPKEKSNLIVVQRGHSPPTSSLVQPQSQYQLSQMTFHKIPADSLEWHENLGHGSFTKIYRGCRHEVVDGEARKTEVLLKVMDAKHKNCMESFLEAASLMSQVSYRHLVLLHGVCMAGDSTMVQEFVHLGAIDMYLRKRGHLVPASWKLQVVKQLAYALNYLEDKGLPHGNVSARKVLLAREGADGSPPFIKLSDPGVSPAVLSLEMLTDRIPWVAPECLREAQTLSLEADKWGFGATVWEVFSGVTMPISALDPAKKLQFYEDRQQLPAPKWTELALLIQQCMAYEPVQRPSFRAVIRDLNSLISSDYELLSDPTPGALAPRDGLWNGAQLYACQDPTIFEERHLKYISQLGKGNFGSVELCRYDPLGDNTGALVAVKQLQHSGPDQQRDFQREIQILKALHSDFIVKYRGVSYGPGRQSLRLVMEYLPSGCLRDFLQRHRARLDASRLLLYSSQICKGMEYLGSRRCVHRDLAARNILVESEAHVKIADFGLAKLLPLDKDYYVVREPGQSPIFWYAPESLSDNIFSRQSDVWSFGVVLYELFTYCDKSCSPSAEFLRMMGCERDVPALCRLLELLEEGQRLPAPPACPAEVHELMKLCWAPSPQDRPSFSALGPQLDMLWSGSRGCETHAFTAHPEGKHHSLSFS
Description: as §1, with “JAK3 enzyme” for “JAK2 enzyme”, “a JAK3” for “a JAK2”, “to 12” for “to 6”, “to 15” for “to 45”

T1 sequence (O60674 whole entry): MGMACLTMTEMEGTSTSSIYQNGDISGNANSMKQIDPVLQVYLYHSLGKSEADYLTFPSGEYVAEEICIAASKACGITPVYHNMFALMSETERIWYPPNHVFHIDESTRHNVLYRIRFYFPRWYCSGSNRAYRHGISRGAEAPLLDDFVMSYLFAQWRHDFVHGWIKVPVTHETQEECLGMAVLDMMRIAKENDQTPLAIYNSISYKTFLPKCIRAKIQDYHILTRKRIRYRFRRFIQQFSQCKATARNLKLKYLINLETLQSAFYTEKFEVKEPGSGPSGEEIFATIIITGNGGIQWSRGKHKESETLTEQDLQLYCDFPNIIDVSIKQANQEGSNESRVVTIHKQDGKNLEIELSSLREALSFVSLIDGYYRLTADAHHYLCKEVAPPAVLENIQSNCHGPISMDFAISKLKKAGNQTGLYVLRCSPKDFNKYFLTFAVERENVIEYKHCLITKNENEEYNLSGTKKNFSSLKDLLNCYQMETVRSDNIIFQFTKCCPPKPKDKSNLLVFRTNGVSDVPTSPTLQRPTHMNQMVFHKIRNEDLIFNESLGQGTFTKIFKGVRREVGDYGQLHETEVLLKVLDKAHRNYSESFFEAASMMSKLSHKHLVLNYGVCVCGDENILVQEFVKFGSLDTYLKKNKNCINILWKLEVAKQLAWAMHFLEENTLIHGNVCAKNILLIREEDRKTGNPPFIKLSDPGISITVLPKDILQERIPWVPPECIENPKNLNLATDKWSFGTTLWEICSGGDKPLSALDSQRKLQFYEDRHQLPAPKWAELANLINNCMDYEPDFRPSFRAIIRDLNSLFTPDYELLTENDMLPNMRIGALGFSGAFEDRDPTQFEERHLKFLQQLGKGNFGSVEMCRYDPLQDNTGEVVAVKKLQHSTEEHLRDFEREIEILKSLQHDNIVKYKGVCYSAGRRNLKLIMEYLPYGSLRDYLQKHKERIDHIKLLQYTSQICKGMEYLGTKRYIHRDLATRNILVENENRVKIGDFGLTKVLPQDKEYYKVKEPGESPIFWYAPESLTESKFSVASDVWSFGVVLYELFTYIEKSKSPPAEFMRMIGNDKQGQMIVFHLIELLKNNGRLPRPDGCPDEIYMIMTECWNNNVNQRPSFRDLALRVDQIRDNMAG

COCC(=O)N1CCN(c2cc(-c3cn([C@@H](C)C(C)C)c(=O)c4c(N)n[nH]c34)nn2C)CC1 [Example 17, 3-amino-7-(5-(4-(methoxyacetyl)piperazin-1-yl)-1-methyl-1H-pyrazol-3-yl)-5-((2S)-3-methylbutan-2-yl)-1,5-dihydro-4H-pyrazolo[4,3-c]pyridin-4-one]
inhibition at 1 µM [1]: 99%
inhibition at 1 µM [2]: 97%
inhibition at 1 µM [3]: 100%
inhibition at 1 µM [4]: 99%

CC(C)[C@H](C)n1cc(-c2cc(N3CCC(C)(O)CC3)n(C)n2)c2[nH]nc(N)c2c1=O [Example 18, 3-amino-7-(5-(4-hydroxy-4-methylpiperidin-1-yl)-1-methyl-1H-pyrazol-3-yl)-5-((2S)-3-methylbutan-2-yl)-1,5-dihydro-4H-pyrazolo[4,3-c]pyridin-4-one]
inhibition at 1 µM [1]: 98%
inhibition at 1 µM [2]: 96%
inhibition at 1 µM [3]: 99%
inhibition at 1 µM [4]: 99%

CC(C)[C@H](C)n1cc(-c2cc(N3CCCCC3)n(C)n2)c2[nH]nc(N)c2c1=O [Example 19, 3-amino-5-((2S)-3-methylbutan-2-yl)-7-(1-methyl-5-(piperidin-1-yl)-1H-pyrazol-3-yl)-1,5-dihydro-4H-pyrazolo[4,3-c]pyridin-4-one]
inhibition at 1 µM [1]: 98%
inhibition at 1 µM [2]: 98%
inhibition at 1 µM [3]: 99%
inhibition at 1 µM [4]: 99%

CC(C)[C@H](C)n1cc(-c2cc(N3CCC[C@H]3CO)n(C)n2)c2[nH]nc(N)c2c1=O [Example 20, 3-amino-7-(5-((2S)-2-(hydroxymethyl)pyrrolidin-1-yl)-1-methyl-1H-pyrazol-3-yl)-5-((2S)-3-methylbutan-2-yl)-1,5-dihydro-4H-pyrazolo[4,3-c]pyridin-4-one]
inhibition at 1 µM [1]: 98%
inhibition at 1 µM [2]: 95%
inhibition at 1 µM [3]: 99%
inhibition at 1 µM [4]: 100%

CC(C)[C@H](C)n1cc(-c2cc(N3CC[C@@H](O)C3)n(C)n2)c2[nH]nc(N)c2c1=O [Example 21, 3-amino-7-(5-((3R)-3-hydroxypyrrolidin-1-yl)-1-methyl-1H-pyrazol-3-yl)-5-((2S)-3-methylbutan-2-yl)-1,5-dihydro-4H-pyrazolo[4,3-c]pyridin-4-one]
inhibition at 1 µM [1]: 98%
inhibition at 1 µM [2]: 97%
inhibition at 1 µM [3]: 99%
inhibition at 1 µM [4]: 99%

CC(C)[C@H](C)n1cc(-c2cc(N3CCC[C@@H]3CO)n(C)n2)c2[nH]nc(N)c2c1=O [Example 22, 3-amino-7-(5-((2R)-2-(hydroxymethyl)pyrrolidin-1-yl)-1-methyl-1H-pyrazol-3-yl)-5-((2S)-3-methylbutan-2-yl)-1,5-dihydro-4H-pyrazolo[4,3-c]pyridin-4-one]
inhibition at 1 µM [1]: 98%
inhibition at 1 µM [2]: 96%
inhibition at 1 µM [3]: 99%
inhibition at 1 µM [4]: 99%

CC(C)[C@H](C)n1cc(-c2cc(N3CC[C@H](O)C3)n(C)n2)c2[nH]nc(N)c2c1=O [Example 23, 3-amino-7-(5-((3S)-3-hydroxypyrrolidin-1-yl)-1-methyl-1H-pyrazol-3-yl)-5-((2S)-3-methylbutan-2-yl)-1,5-dihydro-4H-pyrazolo[4,3-c]pyridin-4-one]
inhibition at 1 µM [1]: 98%
inhibition at 1 µM [2]: 97%
inhibition at 1 µM [3]: 99%
inhibition at 1 µM [4]: 99%

CO[C@@H]1CCN(c2cc(-c3cn([C@@H](C)C(C)C)c(=O)c4c(N)n[nH]c34)nn2C)C1 [Example 24, 3-amino-7-(5-((3R)-3-methoxypyrrolidin-1-yl)-1-methyl-1H-pyrazol-3-yl)-5-((2S)-3-methylbutan-2-yl)-1,5-dihydro-4H-pyrazolo[4,3-c]pyridin-4-one]
inhibition at 1 µM [1]: 98%
inhibition at 1 µM [2]: 96%
inhibition at 1 µM [3]: 100%
inhibition at 1 µM [4]: 99%

CO[C@H]1CCN(c2cc(-c3cn([C@@H](C)C(C)C)c(=O)c4c(N)n[nH]c34)nn2C)C1 [Example 25, 3-amino-7-(5-((3S)-3-methoxypyrrolidin-1-yl)-1-methyl-1H-pyrazol-3-yl)-5-((2S)-3-methylbutan-2-yl)-1,5-dihydro-4H-pyrazolo[4,3-c]pyridin-4-one]
inhibition at 1 µM [1]: 98%
inhibition at 1 µM [2]: 98%
inhibition at 1 µM [3]: 100%
inhibition at 1 µM [4]: 99%

COC[C@@H]1CCCN1c1cc(-c2cn([C@@H](C)C(C)C)c(=O)c3c(N)n[nH]c23)nn1C [Example 26, 3-amino-7-(5-((2S)-2-(methoxymethyl)pyrrolidin-1-yl)-1-methyl-1H-pyrazol-3-yl)-5-((2S)-3-methylbutan-2-yl)-1,5-dihydro-4H-pyrazolo[4,3-c]pyridin-4-one]
inhibition at 1 µM [1]: 96%
inhibition at 1 µM [2]: 88%
inhibition at 1 µM [3]: 98%
inhibition at 1 µM [4]: 98%
